Experimental data reported in ChEMBL document CHEMBL1201862, “PubChem BioAssay data set” (2004).
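Growth conditions: 96-well plates. Treatment: test compound, 48 hours, 5 concentrations. Analysis: linear interpolation between bracketing concentrations; unreached endpoints set to highest concentration. At the GI50, growth is halved.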 The source made the active and inactive calls. No stated cut-off is given here; in the data, active = GI50 up to about 1.1 µM and inactive = higher.

How the values were obtained:
Assay in all cases: inhibition of tumour cell growth, NCI panel, 48 h
[1] = tested on: SNB-78
[2] = tested on: M19-MEL
[3] = tested on: KM-20L2
[4] = tested on: XF498
[5] = tested on: DMS-114
[6] = tested on: LXFL 529
[7] = tested on: DMS-273
[8] = tested on: DLD-1
[9] = tested on: RXF 631

O=C(CSc1nnc(-c2ccc(/N=C\c3ccc(Cl)cc3)cc2)o1)Nc1ccccc1
GI50 [1]: 63.1 µM (inactive)
GI50 [2]: 36.6 µM (inactive)
GI50 [3]: > 100 µM (inactive)
GI50 [4]: > 100 µM (inactive)
GI50 [5]: 58.1 µM (inactive)
GI50 [6]: 50.6 µM (inactive)
GI50 [7]: 27.3 µM (inactive)

O=C(O)Cc1cc(=O)oc2cc(O)c(Cl)cc12
GI50 [8]: > 100 µM (inactive)
GI50 [2]: > 100 µM (inactive)
GI50 [3]: > 100 µM (inactive)
GI50 [4]: > 100 µM (inactive)
GI50 [5]: > 100 µM (inactive)
GI50 [6]: > 100 µM (inactive)
GI50 [7]: > 100 µM (inactive)

CCc1nc2ccccc2c(=O)n1/N=C(\N=N\c1ccc(Cl)cc1)c1ccccc1
GI50 [1]: 27.1 µM (inactive)
GI50 [8]: 37.2 µM (inactive)
GI50 [2]: 41.8 µM (inactive)
GI50 [3]: 14 µM (inactive)
GI50 [5]: 18.7 µM (inactive)
GI50 [6]: 19.1 µM (inactive)
GI50 [7]: 20.7 µM (inactive)

CCOC(=O)CCC1(C(=O)OCC)CCCC1=O (centres undefined)
GI50 [1]: > 100 µM (inactive)
GI50 [8]: > 100 µM (inactive)
GI50 [2]: > 100 µM (inactive)
GI50 [3]: > 100 µM (inactive)
GI50 [4]: > 100 µM (inactive)
GI50 [9]: > 100 µM (inactive)
GI50 [5]: > 100 µM (inactive)
GI50 [6]: > 100 µM (inactive)
GI50 [7]: 43.2 µM (inactive)

Cc1c(N2CCN(C)CC2)nc2ccc(Cl)cc2c1-c1ccccc1
GI50 [1]: 16.3 µM (inactive)
GI50 [3]: 15.7 µM (inactive)
GI50 [5]: 15.8 µM (inactive)
GI50 [6]: 16.9 µM (inactive)
GI50 [7]: 17 µM (inactive)

Cc1ccc(NC(=O)CC(=O)n2nc(-c3ccccc3)c(/N=N\c3ccccc3[N+](=O)[O-])c2-c2ccccc2)cc1
GI50 [1]: > 100 µM (inactive)
GI50 [8]: 77.8 µM (inactive)
GI50 [2]: > 100 µM (inactive)
GI50 [3]: > 100 µM (inactive)
GI50 [4]: 37.5 µM (inactive)
GI50 [9]: 27.6 µM (inactive)
GI50 [5]: 84.5 µM (inactive)
GI50 [6]: 38.6 µM (inactive)
GI50 [7]: 44 µM (inactive)

CC(=O)NC(CCCNC(=O)OCc1ccccc1)C(=O)O (centres undefined)
GI50 [1]: 49.5 µM (inactive)
GI50 [8]: > 100 µM (inactive)
GI50 [2]: > 100 µM (inactive)
GI50 [3]: > 100 µM (inactive)
GI50 [4]: > 100 µM (inactive)
GI50 [9]: > 100 µM (inactive)
GI50 [5]: > 100 µM (inactive)
GI50 [6]: 47.5 µM (inactive)
GI50 [7]: > 100 µM (inactive)

CC1(O)CCn2c(=O)c3cc4ccccc4cc3c(=O)n2C1O (centres undefined)
GI50 [8]: > 100 µM (inactive)
GI50 [2]: > 100 µM (inactive)
GI50 [3]: > 100 µM (inactive)
GI50 [9]: > 100 µM (inactive)
GI50 [5]: > 100 µM (inactive)
GI50 [6]: > 100 µM (inactive)
GI50 [7]: > 100 µM (inactive)

CC(=O)/C=C\C1CC2C=CC1C2 (centres undefined)
GI50 [1]: 22.1 µM (inactive)
GI50 [8]: 15.1 µM (inactive)
GI50 [2]: 55.3 µM (inactive)
GI50 [3]: 40.2 µM (inactive)
GI50 [9]: 51.5 µM (inactive)
GI50 [5]: 21.5 µM (inactive)
GI50 [6]: 29.4 µM (inactive)
GI50 [7]: 41 µM (inactive)

C=CCNC(=O)/C=C\C(=O)O
GI50 [1]: > 100 µM (inactive)
GI50 [8]: > 100 µM (inactive)
GI50 [2]: > 100 µM (inactive)
GI50 [3]: > 100 µM (inactive)
GI50 [9]: > 100 µM (inactive)
GI50 [5]: > 100 µM (inactive)
GI50 [6]: > 100 µM (inactive)
GI50 [7]: > 100 µM (inactive)

CC(=O)O[C@H]1C(=O)[C@@]2(C)C(C(OC(=O)c3ccccc3)[C@]3(O)CC(OC(=O)C(O)C(NC(=O)c4ccc(C(F)(F)F)cc4)c4ccccc4)C(C)=C1C3(C)C)[C@]1(OC(C)=O)CO[C@@H]1C[C@@H]2O (some centres undefined)
GI50 [1]: 0.453 µM (active)
GI50 [8]: 0.231 µM (active)
GI50 [2]: 0.0824 µM (active)
GI50 [3]: 0.0767 µM (active)
GI50 [4]: 0.681 µM (active)
GI50 [5]: 0.0226 µM (active)
GI50 [7]: 0.0431 µM (active)

O=C(/C=C/c1c(O)ccc2ccccc12)c1ccc2ccccc2c1
GI50 [1]: > 100 µM (inactive)
GI50 [8]: > 100 µM (inactive)
GI50 [2]: 18.2 µM (inactive)
GI50 [3]: > 100 µM (inactive)
GI50 [5]: > 100 µM (inactive)
GI50 [7]: > 100 µM (inactive)

Cc1nc(C(N)=O)c(N)n1CCN1CCN(C(=O)CCCCCCCCCCNC2NC=Nc3[nH]cnc32)CC1 (centres undefined)
GI50 [1]: 39.5 µM (inactive)
GI50 [2]: 34.4 µM (inactive)
GI50 [3]: > 100 µM (inactive)
GI50 [9]: > 100 µM (inactive)
GI50 [5]: 6.04 µM (inactive)
GI50 [6]: 11.2 µM (inactive)

COC1C(C)OC(OC2CC(C)(O)Cc3cc4c(c(O)c32)C(=O)c2c(O)cc3c(c2C4=O)OC2OC3(C)C(O)C(N(C)C)C2O)C(OC)C1(C)OC (centres undefined)
GI50 [1]: 0.0282 µM (active)
GI50 [8]: 0.119 µM (active)
GI50 [3]: 0.0299 µM (active)
GI50 [4]: 0.0165 µM (active)
GI50 [9]: 0.155 µM (active)
GI50 [6]: 0.0318 µM (active)
GI50 [7]: 0.015 µM (active)

COc1c(NC(C)=O)cc(C)cc1NC(C)=O
GI50 [1]: > 100 µM (inactive)
GI50 [8]: > 100 µM (inactive)
GI50 [2]: > 100 µM (inactive)
GI50 [4]: > 100 µM (inactive)
GI50 [5]: > 100 µM (inactive)
GI50 [7]: > 100 µM (inactive)

CCC[S+]([O-])c1nc(COC(=O)NC)c(COC(=O)NC)n1C (centres undefined)
GI50 [1]: > 100 µM (inactive)
GI50 [8]: > 100 µM (inactive)
GI50 [2]: > 100 µM (inactive)
GI50 [3]: > 100 µM (inactive)
GI50 [4]: > 100 µM (inactive)
GI50 [9]: > 100 µM (inactive)
GI50 [5]: > 100 µM (inactive)
GI50 [6]: > 100 µM (inactive)
GI50 [7]: > 100 µM (inactive)

Cc1ccc2nc3cc(C)c(=O)cc-3sc2c1
GI50 [1]: > 100 µM (inactive)
GI50 [8]: > 100 µM (inactive)
GI50 [2]: 16.1 µM (inactive)
GI50 [3]: > 100 µM (inactive)
GI50 [5]: 40.7 µM (inactive)
GI50 [6]: 78.5 µM (inactive)
GI50 [7]: > 100 µM (inactive)

O=NN(CCCl)C(=O)NC1CCC(=O)NC1=O (centres undefined)
GI50 [1]: 176 µM (inactive)
GI50 [8]: 358 µM (inactive)
GI50 [2]: 250 µM (inactive)
GI50 [3]: 800 µM (inactive)
GI50 [4]: 69 µM (inactive)
GI50 [5]: 214 µM (inactive)
GI50 [7]: 160 µM (inactive)

CC(=O)Nc1ccccc1-c1nc2ccccc2nc1C
GI50 [1]: > 100 µM (inactive)
GI50 [8]: > 100 µM (inactive)
GI50 [2]: > 100 µM (inactive)
GI50 [3]: > 100 µM (inactive)
GI50 [9]: > 100 µM (inactive)
GI50 [5]: > 100 µM (inactive)
GI50 [6]: > 100 µM (inactive)

O=c1[nH]c(C2CCCCC2)nc2cc(Cl)ccc12
GI50 [1]: > 100 µM (inactive)
GI50 [2]: > 100 µM (inactive)
GI50 [3]: > 100 µM (inactive)
GI50 [5]: > 100 µM (inactive)
GI50 [6]: > 100 µM (inactive)
GI50 [7]: > 100 µM (inactive)

NN=C1/C(=C\c2ccccc2)CCC/C1=C/c1ccccc1
GI50 [1]: 50.5 µM (inactive)
GI50 [8]: 31.8 µM (inactive)
GI50 [2]: 31.6 µM (inactive)
GI50 [3]: 39.6 µM (inactive)
GI50 [5]: 26.1 µM (inactive)
GI50 [6]: 31.4 µM (inactive)
GI50 [7]: 39.9 µM (inactive)

COc1ccc(/C=C2\CCCC(C(NO)c3ccc(OC)cc3)C2=NO)cc1 (centres undefined)
GI50 [1]: 45.7 µM (inactive)
GI50 [8]: 46.7 µM (inactive)
GI50 [2]: 46.3 µM (inactive)
GI50 [3]: 61.9 µM (inactive)
GI50 [9]: 40.5 µM (inactive)
GI50 [5]: 28.4 µM (inactive)
GI50 [6]: 28.1 µM (inactive)
GI50 [7]: 45.9 µM (inactive)
